Measurements reported in US20150231167A1, “TREATMENT OF HEMATOLOGICAL NEOPLASMS” (THOMAS JEFFERSON UNIVERSITY, priority 2012, published 2015).
Values belong to the compound of their own block, whether it stands above or below them.

Columns and labels:
[1] = biological target: T1, Stat5a (Homo sapiens, UniProt P42229); assay: Stat5a dimerization, co-immunoprecipitation of FLAG- and MYC-tagged Stat5a in PC-3 cells; format: cell-based; settings: pre-treated 2 h, hPrl 10 nM 30 minutes
T1 construct: expressed in transfected cells; host or cells: PC-3
T1 sequence (P42229 1-794): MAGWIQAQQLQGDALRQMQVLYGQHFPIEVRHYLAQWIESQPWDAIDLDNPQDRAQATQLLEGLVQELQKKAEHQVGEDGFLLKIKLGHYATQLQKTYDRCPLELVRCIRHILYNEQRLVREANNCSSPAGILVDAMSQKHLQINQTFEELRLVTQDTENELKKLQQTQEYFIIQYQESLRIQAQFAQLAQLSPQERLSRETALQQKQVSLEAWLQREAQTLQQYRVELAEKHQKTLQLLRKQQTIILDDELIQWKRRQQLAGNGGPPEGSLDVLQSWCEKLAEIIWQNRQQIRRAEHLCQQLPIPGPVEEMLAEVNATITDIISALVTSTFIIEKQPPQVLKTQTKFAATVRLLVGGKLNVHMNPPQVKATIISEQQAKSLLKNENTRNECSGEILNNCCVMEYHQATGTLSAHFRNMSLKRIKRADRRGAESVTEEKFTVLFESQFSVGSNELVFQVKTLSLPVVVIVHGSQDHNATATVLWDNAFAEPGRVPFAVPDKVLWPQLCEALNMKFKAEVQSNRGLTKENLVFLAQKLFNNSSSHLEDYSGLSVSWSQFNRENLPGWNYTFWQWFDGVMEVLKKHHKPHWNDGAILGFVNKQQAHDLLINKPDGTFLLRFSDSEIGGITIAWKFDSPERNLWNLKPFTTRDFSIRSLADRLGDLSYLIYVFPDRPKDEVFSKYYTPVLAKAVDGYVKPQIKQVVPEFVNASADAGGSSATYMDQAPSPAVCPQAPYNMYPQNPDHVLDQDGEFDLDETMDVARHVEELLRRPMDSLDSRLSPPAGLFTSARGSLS
Procedure: FLAG-tagged Stat5a and MYC-tagged Stat5a were generated as follows by standard molecular biology cloning techniques. Plasmid pCMV3-FLAG-Stat5a, pCMV3-MYC-Stat5a and pPr1R were co-transfected using FuGENE6 (Roche) into PC-3 cells (2 μg of each plasmid per 1×10^7 cells). The cells were starved for 20 hours, pre-treated with N^6-benzyladenosine for 2 h, then stimulated with hPrl (10 nM) in RPMI 1640 without serum for 30 minutes. The cell lysates were immunoprecipitated with 25 μl anti-FLAG M2 […] affinity gel (2 μg/ml, Sigma), anti-MYC pAb (1 μg/ml, Upstate) or normal rabbit serum (NRS). The primary antibodies were used in the immunoblottings at the following concentrations: anti-FLAG pAb (1:1000; Stratagene), anti-MYC mAb (1:1000; Sigma), anti-Stat5a/b mAb (1:250) (Transduction Laboratories) detected by horseradish peroxidase-conjugated secondary antibodies.
Lanes 1, 2, 4, 6 and 8 represent cells stimulated with human prolactin (Prl) for 30 minutes which induces dimerization of Stat5. Two hours prior to Prl-stimulation, the cells had been treated with DMSO (lanes 1-4), the control compound C5 (lanes 5 and 6) or N^6-benzyladenosine (lanes 7 and 8) to test whether the Stat5a/b-inhibitor compound, N6BA, would be able to inhibit dimerization of Stat5. […] It should be noted the drug effect in this study was not due to cell apoptosis induction, as the treatment time was only 2 hours.

[2] = system: Stat5a/b; assay: Western blot of Stat5a/b phosphorylation in imatinib-resistant KCL22 cells (KCL22R); format: cell-based, human; settings: various concentrations, 6 h or 16 h
Procedure: (§1) Exponentially growing KCL22 and KCL22R cells were treated with N6BAP at various concentrations for 6 h or 16 h after which the cells were harvested. Cell pellets were solubilized in lysis buffer [10 mM Tris-HCl (pH 7.6), 5 mM EDTA, 50 mM sodium chloride, 30 mM sodium pyrophosphate, 50 mM sodium fluoride, 1 mM sodium orthovanadate, 1% Triton X-100, 1 mM phenylmethylsulfonyl fluoride, 5 μg/ml aprotinin, 1 μg/ml pepstatin A, and 2 μg/ml leupeptin], rotated end-over-end at 4° C. for 60 min, and insoluble material was pelleted at 12,000×g for 30 min at 4° C. The protein concentrations of clarified cell lysates were determined by simplified Bradford method (Bio-Rad Laboratories, Hercules, Calif.). Western blotting of the lysates was carried out using, as primary antibodies, the following antibodies at the following concentrations: anti-phosphotyrosine-Stat5a/b (Y694/Y699) mAb (1 μg/ml, Advantex BioReagents, Conroe, Tex.), anti-Stat5ab mAb (1:250; BD Biosciences, San Jose, Calif.) or anti-actin pAb (Sigma). Anti-actin was included as a control.
(§2) Exponentially growing K562 cells were treated with N6BA for 3 h or 6 h after which the cells were harvested. […] The protein concentrations of clarified cell lysates were determined by simplified Bradford method (Bio-Rad Laboratories, Hercules, Calif.). […]

[3] = system: K562 cells; assay: K562 cell viability, MTS metabolic activity assay; format: cell-based, human; settings: 72 h at 3.1, 6.3, 12.5, 25 and 50 μM
Procedure: (§3) Exponentially growing K562 cells were treated with N6BAP or the control compound C5 for 72 h at 3.1, 6.3, 12.5, 25 and 50 μM indicated concentrations. The cell viability was assessed by MTS ([…]) metabolic activity assay (CellTiter 96® AQueous Assay kit).
as §3, with “K562 leukemia” for “K562”, “N6BA” for “N6BAP”, “μM” for “μM indicated”

[4] = system: Stat5; assay: Stat5 transcriptional activity, beta-casein promoter luciferase reporter gene assay in PC-3 cells; format: cell-based, human; settings: pretreated 1 hour, 10 nM hPrl for 16 hours, firefly/Renilla luciferase
Procedure: Cells of the human prostate cell line PC-3 were plated into 96-well plate at the density of 2×10^5 per well. After 24 hours of plating, cells were transiently co-transfected using FuGENE6 (Roche) with 0.25 μg of each of pStat5a or pStat5b, pPr1R (prolactin receptor) plasmids, 0.5 μg of pBeta-casein-luc and 0.025 μg of pRL-TK (Renilla luciferase plasmids as an internal control. After another 24 hours of transfection, the cells were starved in serum-free medium for 8 hours, pretreated with N^6-benzyladenosine (“N6BA”), or the control compound C5, for 1 hour, and then stimulated with 10 nM human prolactin (hPrl) in the serum-free medium for additional 16 hours. The lysates were assayed for firefly and Renilla luciferase activities using the Dual-Luciferase reporter assay system (Promega). Three independent experiments were carried out in triplicate. The firefly luciferase activity was normalized to the Renilla luciferase activity of the same sample, and the mean was calculated from the parallels. From the mean values of each independent run, the overall mean and its standard deviation (S.D.) were calculated.

[5] = system: Stat5a/b; assay: Western blot of Stat5a/b phosphorylation in K562 cells; format: cell-based, human
Procedure: (§4) Exponentially growing K562 cells were treated with 5 μM N6BAP or pimozide for 3 h after which the cells were harvested. Pimozide is a Stat5 inhibitor in leukemia cells (Nelson et al., Blood 117:3421-3429, 2011). Cell pellets were solubilized in lysis buffer [10 mM Tris-HCl (pH 7.6), 5 mM EDTA, 50 mM sodium chloride, 30 mM sodium pyrophosphate, 50 mM sodium fluoride, 1 mM sodium orthovanadate, 1% Triton X-100, 1 mM phenylmethylsulfonyl fluoride, 5 μg/ml aprotinin, 1 μg/ml pepstatin A, and 2 μg/ml leupeptin], rotated end-over-end at 4° C. for 60 min, and insoluble material was pelleted at 12,000×g for 30 min at 4° C. The protein concentrations of clarified cell lysates were determined by simplified Bradford method (Bio-Rad Laboratories, Hercules, Calif.). Western blotting of the lysates was carried out using, as primary antibodies, the following antibodies at the following concentrations: anti-phosphotyrosine-Stat5a/b (Y694/Y699) mAb (1 μg/ml, Advantex BioReagents, Conroe, Tex.), anti-Stat5ab mAb (1:250; BD Biosciences, San Jose, Calif.), anti-human Abl mAb (Calbiochem) or anti-phosphotyrosine mAb (Millipore).
as §2

[6] = system: Stat5a/b; assay: Western blot of Stat5a/b phosphorylation in parental KCL22 cells (KCL22S); format: cell-based, human; settings: various concentrations, 6 h or 16 h
Procedure: as §1, §2

[7] = system: BV173; assay: Growth of BV173 parent cell line, trypan blue viable cell count; format: cell-based, human; settings: 5 μM; 24, 48, 72 and 96 hours
Procedure: (§5) KKCL22 and BV173 parent cell lines, and imatinib-resistant counterpart cell lines, were cultured in the presence culture medium without any compounds (Ctrl), DMSO (0.1%), the control compound C5 (5 μM) or N6BAP at 5 μM concentration. The imatinib-resistant lines are characterizes by the bcr-abl T315I mutation, which provides imatinib resistance. The cells were harvested at 24, 48, 72 and 96 hours, trypan blue stained and the numbers of viable cells were counted for each time-point.

[8] = system: imatinib-resistant K562 line; assay: Growth of imatinib-resistant K562 line, trypan blue viable cell count; format: cell-based, human; settings: 5 μM; 24, 48, 72 and 96 hours
Procedure: (§6) The K562 parent cell line and an imatinib-resistant K562 line were cultured in the presence of culture medium without any compounds (Ctrl), DMSO (0.1%), the control compound C5 (5 μM) or N6BAP at 5 μM concentration. The cells were harvested at 24, 48, 72 and 96 hours, trypan blue stained and the numbers of viable cells were counted for each time-point.

[9] = biological target: T2, BCR-ABL (Homo sapiens, UniProt P00519); assay: Western blot of BCR-ABL phosphorylation and protein levels in K562 cells; format: cell-based; settings: 5 μM, 3 h
T2 construct: endogenous in cells; host or cells: K562; the other entry of the earlier key: BCR (P11274, Breakpoint cluster region protein)
T2 sequence (P00519 with tags, fused parts or gaps): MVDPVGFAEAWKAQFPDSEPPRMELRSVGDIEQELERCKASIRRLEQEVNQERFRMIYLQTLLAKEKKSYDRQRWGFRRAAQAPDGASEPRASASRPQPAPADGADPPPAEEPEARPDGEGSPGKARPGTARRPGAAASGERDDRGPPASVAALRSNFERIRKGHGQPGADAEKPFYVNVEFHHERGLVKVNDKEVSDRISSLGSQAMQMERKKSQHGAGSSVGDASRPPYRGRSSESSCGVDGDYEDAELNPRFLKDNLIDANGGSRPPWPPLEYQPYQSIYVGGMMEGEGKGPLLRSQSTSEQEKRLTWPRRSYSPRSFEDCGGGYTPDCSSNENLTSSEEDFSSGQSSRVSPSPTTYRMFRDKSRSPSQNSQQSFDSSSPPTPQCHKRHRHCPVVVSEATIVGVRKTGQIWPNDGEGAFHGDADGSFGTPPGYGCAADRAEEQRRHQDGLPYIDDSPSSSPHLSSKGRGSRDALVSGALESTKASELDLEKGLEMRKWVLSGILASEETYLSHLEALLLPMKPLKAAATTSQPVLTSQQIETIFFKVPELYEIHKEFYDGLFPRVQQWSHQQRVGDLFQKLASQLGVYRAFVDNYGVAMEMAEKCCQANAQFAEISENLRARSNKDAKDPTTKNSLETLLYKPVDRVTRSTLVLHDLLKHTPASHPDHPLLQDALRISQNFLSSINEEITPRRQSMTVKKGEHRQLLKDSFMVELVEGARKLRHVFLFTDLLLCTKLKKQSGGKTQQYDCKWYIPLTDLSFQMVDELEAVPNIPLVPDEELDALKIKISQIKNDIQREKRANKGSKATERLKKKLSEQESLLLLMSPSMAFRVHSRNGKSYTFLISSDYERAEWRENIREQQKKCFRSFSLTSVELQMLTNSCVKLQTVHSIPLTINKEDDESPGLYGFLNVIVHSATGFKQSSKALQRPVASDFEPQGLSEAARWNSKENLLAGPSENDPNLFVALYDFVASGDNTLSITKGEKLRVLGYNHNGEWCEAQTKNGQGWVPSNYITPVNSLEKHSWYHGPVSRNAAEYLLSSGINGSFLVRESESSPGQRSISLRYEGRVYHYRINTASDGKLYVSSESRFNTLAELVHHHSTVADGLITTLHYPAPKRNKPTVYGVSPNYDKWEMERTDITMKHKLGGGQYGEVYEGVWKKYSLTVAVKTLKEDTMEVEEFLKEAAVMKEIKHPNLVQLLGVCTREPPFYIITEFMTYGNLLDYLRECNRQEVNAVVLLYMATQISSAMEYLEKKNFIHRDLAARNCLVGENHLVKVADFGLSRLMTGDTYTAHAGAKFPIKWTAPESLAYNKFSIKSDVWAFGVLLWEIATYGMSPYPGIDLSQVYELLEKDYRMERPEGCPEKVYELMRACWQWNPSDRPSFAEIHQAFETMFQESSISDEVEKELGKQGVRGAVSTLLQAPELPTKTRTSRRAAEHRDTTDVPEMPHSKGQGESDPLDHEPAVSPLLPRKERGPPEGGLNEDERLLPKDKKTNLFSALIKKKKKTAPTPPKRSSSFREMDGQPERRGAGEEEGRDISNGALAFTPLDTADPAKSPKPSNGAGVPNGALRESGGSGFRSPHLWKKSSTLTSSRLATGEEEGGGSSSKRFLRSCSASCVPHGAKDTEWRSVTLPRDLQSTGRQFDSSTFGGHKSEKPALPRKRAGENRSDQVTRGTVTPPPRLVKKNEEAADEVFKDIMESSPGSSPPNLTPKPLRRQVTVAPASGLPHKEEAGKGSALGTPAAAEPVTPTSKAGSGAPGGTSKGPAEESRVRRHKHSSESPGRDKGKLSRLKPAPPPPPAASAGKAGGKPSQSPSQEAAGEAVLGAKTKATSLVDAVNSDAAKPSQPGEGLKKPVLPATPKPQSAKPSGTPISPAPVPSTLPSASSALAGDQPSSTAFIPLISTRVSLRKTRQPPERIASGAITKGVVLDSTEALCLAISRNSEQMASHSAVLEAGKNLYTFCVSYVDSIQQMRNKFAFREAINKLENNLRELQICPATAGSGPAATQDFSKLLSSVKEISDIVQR
Procedure: as §4

[10] = system: BCR-ABL-driven human leukemic cell lines; assay: Cell cycle progression analysis (data not shown); format: cell-based
[11] = system: KCL22 T315I; assay: Growth of imatinib-resistant KCL22 T315I line, trypan blue viable cell count; format: cell-based, human; settings: 5 μM; 24, 48, 72 and 96 hours
Procedure: as §5

[12] = system: BV173 T315I; assay: Growth of imatinib-resistant BV173 T315I line, trypan blue viable cell count; format: cell-based, human; settings: 5 μM; 24, 48, 72 and 96 hours
Procedure: as §5

[13] = system: K562 parent cell line; assay: Growth of K562 parent cell line, trypan blue viable cell count; format: cell-based, human; settings: 5 μM; 24, 48, 72 and 96 hours
Procedure: as §6

[14] = system: KCL22; assay: Growth of KCL22 parent cell line, trypan blue viable cell count; format: cell-based, human; settings: 5 μM; 24, 48, 72 and 96 hours
Procedure: as §5

- Stat5a dimerization [1]: did not inhibit dimerization of Stat5a
SMILES: Nc1nc(SCc2cccnc2)[nH]c(=O)c1NC(=O)c1ccco1 [C5, reference compound]

SMILES: OC[C@H]1O[C@@H](n2cnc3c(NCc4ccccc4)ncnc32)[C@H](O)[C@@H]1O [N6BA, N^6-benzyladenosine]
- phosphorylation of Stat5 [2]: inhibits phosphorylation of Stat5
- number of viable K562 cells (MTS) [3]: decreased the number of K562 cells
- Stat5a dimerization [1]: effectively inhibited Stat5a dimerization
- transcriptional activity of Stat5 [4]: inhibits transcriptional activity of Stat5
- phosphorylation of Stat5 ([5]; indicated concentrations, 3 h or 6 h): inhibits phosphorylation of Stat5
- phosphorylation of Stat5 [6]: inhibits phosphorylation of Stat5

- BCR-ABL protein levels [9]: did not affect
SMILES: O=P(O)(O)OC[C@H]1O[C@@H](n2cnc3c(NCc4ccccc4)ncnc32)[C@H](O)[C@@H]1O [N6BAP, N^6-benzyladenosine-5′-monophosphate]
- growth of parental cell line BV173 [7]: blocked not only the growth of the parental cell lines
- growth of the imatinib-resistant K562 cell line [8]: blocked the growth of the imatinib-resistant cell line
- phosphorylation of Stat5 [2]: blocks phosphorylation of Stat5
- phosphorylation of BCR-ABL ([9]; anti-phosphotyrosine mAb): did not affect phosphorylation of BCR-ABL
- number of viable K562 cells (MTS) [3]: reduces the number of viable K562 human leukemia cells
- apoptotic death (cell cycle progression analysis) [10]: induced apoptotic death
- growth of imatinib-resistant KCL22 T315I [11]: blocked the growth of the corresponding imatinib-resistant cell lines
- growth of imatinib-resistant BV173 T315I [12]: blocked the growth of the corresponding imatinib-resistant cell lines
- growth of the parental K562 line [13]: blocked not only the growth of the parental K562 line
- growth of parental cell line KCL22 [14]: blocked not only the growth of the parental cell lines
- phosphorylation of Stat5 ([5]; 5 μM, 3 h, Western blot anti-pYStat5): blocks phosphorylation of Stat5
- phosphorylation of Stat5 [6]: blocks phosphorylation of Stat5
